Tests used:
[1] = Tolerability in rats: liver enzyme panel 24 hours post dose; assay type: in vivo, rat; conditions: Sprague Dawley female rats, 6 mg/kg, serum
Description: For efficacy, Sprague Dawley female rats were dosed i.v. at 0.1 mpk or 0.03 mpk. 6-7 days post dose, rats were euthanized by CO2 asphyxiation. Blood was collected into serum separator tubes. Liver biopsy processed for gDNA and assessed for editing by NGS methods described in Example 115. Results are shown in Table 11 and FIGS. 12A and 12B. For tolerability, Sprague Dawley female rats were dosed at 6 mpk and 24 hours post dose the animals were euthanized by CO2 asphyxiation. Blood was collected into serum separator tubes and sent to an external CRO for quantitation of liver enzymes via a liver enzyme panel.

TTR in HUH7 cells = test: In vitro editing in HUH7 cells, LNP with Cas9 mRNA and sgRNA G000502, NGS; assay type: cell-based, human; conditions: Table 14; 2000 ng RNA per well, cells harvested 6 hours post-transfection, biological duplicate, G000502 target locus
Description: A series of compounds based on Compound 46 that vary by the inclusion of a C4-12 alkyl at the R^3 position of Formula (IA) (as illustrated in FIG. 13A) were tested for in vitro editing. The human hepatocellular carcinoma cell line […] (Japanese Collection of Research Bioresources Cell Bank, Cat. JCRB0403) was cultured in DMEM media supplemented with 10% fetal bovine serum and 1% Penicillin-Streptomycin. Cells were plated at a density of 20,000 cells/well in a 96-well plate 24 hours prior to transfection (˜80% confluent at time of transfection). The LNPs were formulated at a 1:2 w/w ratio of sgRNA and Cas9 mRNA using the cross flow procedure with lipid molar compositions as described in Table 13 at an N/P ratio of 6.0. LNP compositions were analyzed for average particle size, polydispersity (pdi), total RNA content and encapsulation efficiency of RNA as described in Example 115. Analysis of average particle size, polydispersity (PDI), total RNA content and encapsulation efficiency of RNA are shown in Table 13. LNPs were diluted into media, incubated for 5 minutes at 37 C and pipetted onto cells at a dose of 2000 ng RNA per well. Each condition was assayed in biological duplicate. Cells were harvested post-transfection at 6 hours. Genomic DNA was extracted using 50 μL/well BuccalAmp DNA Extraction solution (Epicentre, Cat. QE09050) according to manufacturer's protocol. All DNA samples were subjected to PCR and subsequent NGS analysis for editing at the G000502 target locus, as described above. As shown in Table 14 and FIG. 13B, all compounds tested were efficacious for in vitro editing.

mouse TTR gene = test: In vivo editing in mouse liver, LNP with Cas9 mRNA and sgRNA G502, NGS; conditions: G502, sgRNA:Cas9 mRNA 1:2 w/w, Example 119
Description: CD-1 female mice, ranging from 6-10 weeks of age were used in each study. Animals were weighed and grouped according to body weight for preparing dosing solutions based on group average weight. LNPs were dosed via the lateral tail vein in a volume of 0.2 mL per animal (approximately 10 mL per kilogram body weight). The animals were periodically observed for adverse effects for at least 24 hours post dose.
For studies measuring in vivo editing in liver, CD-1 female mice were dosed at 0.1 mpk unless otherwise noted. Animals were euthanized at 6 or 7 days by exsanguinationvia cardiac puncture under isoflourane anesthesia. Liver tissue was collected from each animal for DNA extraction and analysis. Blood was collected into serum separator tubes or into tubes containing buffered sodium citrate for plasma as described herein. Cohorts of mice were measured for editing by Next-Generation Sequencing (NGS).
In brief, to quantitatively determine the efficiency of editing at the target location in the genome, genomic DNA was isolated and deep sequencing was utilized to identify the presence of insertions and deletions introduced by gene editing.
PCR primers were designed around the target site (e.g., B2M), and the genomic area of interest was amplified. […] The reads were aligned to the relevant reference genome (e.g., GRCm38) after eliminating those having low quality scores. The resulting files containing the reads were mapped to the reference genome (BAM files), where reads that overlapped the target region of interest were selected and the number of wild type reads versus the number of reads which contain an insertion, substitution, or deletion was calculated.
The editing percentage (e.g., the “editing efficiency” or “percent editing”) is defined as the total number of sequence reads with insertions or deletions over the total number of sequence reads, including wild type.
We assessed in vivo editing efficiency for materials delivered with formulations with variable tail lengths through in vivo editing experiments. […]

SMILES	ALP (U/L) [1] [U/L]	ALT (U/L) [1] [U/L]	AST (U/L) [1] [U/L]	Creatine kinase (U/L) [1] [U/L]	GGT (U/L) [1] [U/L]	Total Bilirubin [1] [mg/dL]	Editing (TTR in HUH7 cells) [%]	efficacy for in vivo editing (in words) (mouse TTR gene)
CCCCC/C=C\C/C=C\CCCCCCCC(=O)OCC(COC(=O)CCCCCCC/C=C\C/C=C\CCCCC)OC(=O)CCC(CCCCCC)OC(=O)NCCN1CCCC1 (racemic) [Compound 50, 2-((4-(((2-(pyrrolidin-1-yl)ethyl)carbamoyl)oxy)decanoyl)oxy)propane-1,3-diyl (9Z,9′Z,12Z,12′Z)-bis(octadeca-9,12-dienoate)]	508.6	250.8	820.8	272	11	0.4	64.3	efficacious
CCCCC/C=C\C/C=C\CCCCCCCC(=O)OCC(COC(=O)CCCCCCC/C=C\C/C=C\CCCCC)OC(=O)CCC(CCCCC)OC(=O)NCCN1CCCC1 (stereo not drawn) [Compound 72, 2-((4-(((2-(pyrrolidin-1l-yl)ethyl)carbamoyl)oxy)nonanoyl)oxy)propane-1,3-diyl (9Z,9′Z,12Z,12′Z)-bis(octadeca-9,12-dienoate)]	–	–	–	–	–	–	65.8	efficacious
CCCCC/C=C\C/C=C\CCCCCCCC(=O)OCC(COC(=O)CCCCCCC/C=C\C/C=C\CCCCC)OC(=O)CCC(CCCCCCCC)OC(=O)NCCN1CCCC1 (stereo not drawn) [Compound 51, 2-((4-(((2-(pyrrolidin-1-yl)ethyl)carbamoyl)oxy)dodecanoyl)oxy)propane-1,3-diyl (9Z,9′Z,12Z,12′Z)-bis(octadeca-9,12-dienoate)]	–	–	–	–	–	–	69.0	efficacious
